“And” between values parts separate entries of the source, which are not always exact repeats. Equal values may be shown once. Records with an inconclusive call do not appear. The source made the active and inactive calls.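 The calls were made as follows: active = fitted half-maximal concentration of signal decrease at or below twice the sample's top tested concentration; inconclusive = flat curve between -70 and -30 percent, or poor fit; inactive = flat within 30 percent, signal rise, or potency above limit.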
Target: T. gondii ME49Luc in IFN-y HeLa, luciferase, 72 h
Experiment: inhibitors of Toxoplasma growth in IFN-γ-primed HeLa – cell-based, ME49Luc, luciferase, 72 h, dose response (AID 1259418)

Structure (SMILES) | AC50
Cc1ccccc1S(=O)(=O)N1CC[C@H]2[C@H](CO)Nc3ccc(-c4ccc(F)cc4)cc3[C@H]21 | 28.5 µM
COc1cccc(NC(=O)N2CC(=O)N3[C@H](CO)[C@H](c4ccc(C#CCC5CCCC5)cc4)[C@@H]3C2)c1 | 17.6 µM
COc1ccc(-c2nc(N3CCC4(CC3)OCCO4)c3ccccc3n2)cc1 | 20.1 µM
O=C(Nc1cccc(F)c1)N1CCCCN2[C@H](CO)[C@@H](c3ccc(C#Cc4cccnc4)cc3)[C@@H]2C1 | 16 µM
COc1cccc(-c2ccc([C@H]3[C@H]4CN(C(=O)Cc5ccncc5)CCCCN4[C@H]3CO)cc2)c1 | > 39 µM (inactive)
COc1ccc(CNC2=NCCNC23CCN(S(=O)(=O)c2ccc(CC(C)C)cc2)CC3)cc1 | 6.46 µM
Cc1ccc(-c2nc(CN3CCN(C(=O)NCCc4ccccc4)CC3)c(C)o2)cc1 | > 39 µM (inactive)
O=C(CC1N=C2c3ccccc3N=C(SCc3ccc(F)cc3)N2C1=O)NCCc1ccccc1 (stereo not given) | 4.59 µM
Cc1ccc(CCNc2nc(-c3ccc(Cl)cc3)nc3ccccc23)cc1 | 22.7 µM
O=C(O)CCc1nc2sc3c(c2c(=O)[nH]1)CCCC3 | > 20 µM (inactive)
CC(C)Cc1ccc(S(=O)(=O)N2CCC3(CC2)NCCN=C3NCc2ccc(Cl)cc2)cc1 | 12.4 µM
CCN1CCN(CCCNc2nc(-c3ccc(Cl)cc3)nc3ccccc23)CC1 | > 20 µM (inactive)
COc1ccccc1NC(=O)Nc1ccc(-c2nc(-c3ccc(C)cc3C)co2)cc1 | 31.9 µM
COc1ccccc1C(=O)Nc1ccc(-c2nc(-c3cc(C)ccc3C)co2)cc1 | 5.13 µM
O=C1CN(S(=O)(=O)c2cccc(F)c2)C[C@@H]2[C@@H](c3ccc(C4=CCCC4)cc3)[C@H](CO)N12 | > 39 µM (inactive)
CC(C)CC#Cc1ccc([C@@H]2[C@H](CO)N3C(=O)CN(C(=O)Nc4cc(F)ccc4F)C[C@@H]23)cc1 | 12.6 µM and 4.61 µM
O=C1c2c(O)ccc(O)c2C(=O)c2c(NCCNCCO)ccc(NCCNCCO)c21 | 0.128 µM
O=C(c1cnccn1)N1CC(=O)N2[C@H](CO)[C@@H](c3ccc(/C=C/c4ccccc4)cc3)[C@@H]2C1 | 21.7 µM and 13.2 µM

Structure (SMILES) | AC50
Cc1cc(C)c(S(=O)(=O)N2CCC3(CC2)NCCN=C3NCc2cc(F)cc(F)c2)cc1C | 7.83 µM
O=S1(=O)c2ccccc2O[C@H]2CCN(Cc3ccc(Cl)cc3)CC[C@H]2N1CC1CC1 | 32 µM
N#C[C@@H]1[C@@H](c2ccc(C#Cc3cccnc3)cc2)[C@@H](CO)N1C(=O)NC1CCCCC1 | 13.6 µM
CCC(=O)N1CCC2(CC1)Nc1ccc(Cl)cc1-n1cccc12 | 31 µM
COc1ccc(C#Cc2ccc([C@@H]3[C@H]4CN(C(=O)NC(C)C)CC(=O)N4[C@H]3CO)cc2)cc1 | 9.33 µM and 7.45 µM
Cn1cc(-c2cnc(Nc3ccccc3)nc2)cc1C(=O)Nc1cccc(O)c1 | 23.6 µM
COc1cccc(CN2CCC3(COCc4cnc(-c5ccccc5)nc43)C2)c1 (stereo not given) | 17.4 µM
O=C(Cc1ccccn1)N1CC(=O)N2[C@H](CO)[C@H](c3ccc(C#CCC4CCCC4)cc3)[C@H]2C1 | 19.4 µM and 8.78 µM
CCc1nc(OCC(=O)NCc2ccc(SC)cc2)c2ccccc2n1 | > 39 µM (inactive)
O=C(CCC1N=C2c3ccccc3N=C(SCc3cccc(Cl)c3)N2C1=O)NCc1cccs1 (stereo not given) | 5.48 µM
CSc1cccc(NC(=O)CN2CCC3(CC2)N=C(c2cccc(Cl)c2)C(=O)N3)c1 | 23.8 µM
C[C@H](CO)N1C[C@H](C)[C@H](CN(C)C(=O)Nc2ccc(C(F)(F)F)cc2)Oc2c(NC(=O)c3ccc(-c4nccs4)cc3)cccc2C1=O | 18 µM
Cc1ccccc1-c1ccc([C@H]2[C@@H](CO)N3CCCCN(S(=O)(=O)Cc4ccccc4)C[C@H]23)cc1 | 17.6 µM and 13.3 µM
COc1ccc(C#Cc2ccc([C@@H]3[C@@H](CO)N4C(=O)CN(C(=O)NC(C)C)C[C@@H]34)cc2)cc1 | 20.4 µM
COc1ccc(-c2nc(NCC3CCN(Cc4ccc(C)cc4)C3)c3ccccc3n2)cc1 (stereo not given) | 13.5 µM
O=C(C1CCCCC1)N1C[C@@H]2N[C@H](C1)C2c1ccc(-c2ccccc2F)cc1 (stereo not given in full) | 16.7 µM
CCCCCCCCCCCCCCCC[n+]1ccccc1 | 11.5 µM

— PubChem BioAssay AID1259418 (Broad Institute, 2018)
